Patent US11360102B2, “Biomarkers for the early detection of Parkinson's disease” (BOSTON MEDICAL CENTER CORPORATION, priority 2015, dated 2022)
Where two headings read alike, the source gives them in different places.

How the values were obtained:
[1] = system: PLA2g6(L)-dependent Orai1-mediated SOCE; experiment: TG-induced store-operated Ca2+ entry (SOCE), Fura-2 imaging in human primary skin fibroblasts; format: cell-based; settings: Skin fibroblast, 10 μM of DES, hPSF, read-out: inhibition of TG-induced Ca^2+ influx
Description: Intracellular Ca^2+ studies were performed using standard Fura-2 imaging technique. Briefly, the cells were loaded with Fura-2/AM (5 μM) (Invitrogen) and cytosolic Ca^2+ (using F340/F380 ratio) was recorded simultaneously in individual cells. Representative traces in the figures show average (±SD) responses from up to 20 cells recorded simultaneously. Ca^2+ changes are shown by ΔRatio (ΔF340/F380), which is the difference between the basal and peak values of Ca^2+ responses. Summary bar graphs show the average (±SE) from 3 independent experiments for each condition; the total number of cells in each experimental group is identified on the graphs.
SOCE was measured in response to extracellular application of 2-2.5 mM Ca^2+ in the presence of TG. Concentration and time of acute TG treatment was titrated for each cell type to ensure >90% loss of Ca^2+ from TG-sensitive stores at the time of Ca^2+ addition. […] To inhibit PLA2g6 activity, (S)-BEL (S-bromoenol lactone, Cayman, USA) was applied (10-50 μM for 20 min in serum-free medium at 37° C.) to the cells after their loading with Fura-2/AM, and was washed away before the start of experiment.

[2] = system: PLA2g6 ex2^KO mice; experiment: L-DOPA challenge test, balance beam test; format: in vivo, mouse
Description: The balance beam test (ref 72, 73) was used to assess the ability of ageing ex2^KO and WT mice to maintain balance while walking along a narrow (2 cm) beam placed 20 cm above a soft mattress. Each mouse was placed on a beam for 2 minutes, and its movement was recorded by video camera. The total travel distance, the number of missteps (paw faults, or slips) during travel, and the number of falls off the beam were analyzed for each mouse, and data summarized for each group as mean±SE. The numbers of animals used for each group are identified on the graphs. L-DOPA challenge test (ref 3) was performed on three age groups (12, 16 and 20 months old) ex2^KO male mice with motor deficits. Control balance beam test was performed in the morning a day before L-3,4-dihydroxyphenylalanine (L-DOPA) challenge. In the morning of the following day, all mice received a single dose of L-DOPA (5, 10 or 25 mg/kg, Sigma) via peritoneal injection. Twenty minutes before L-DOPA administration, mice were given 6 mg/kg of benserazide (Sigma) to inhibit peripheral DOPA decarboxylase. The balance beam test was done 1 h after L-DOPA injection, as described above. Video-recorded data for each mouse were analyzed later, and summarized for each group as mean±SE. The numbers of animals used for each age group are identified next to the graph.

[3] = system: PLA2g6; experiment: PLA2g6 activity, modified PLA2 assay kit, fibroblast homogenates; format: biochemical, human; settings: S-BEL 25 μM for 10 min; hPSF from control, idPD and fPD^R747W patients
Description: A modified PLA2 assay kit (Cayman for MEFs, and AbCam for hPSF) was used as previously described^21,26. Briefly, each sample of live hPSF or MEF cells was homogenized using a cold lysis buffer (10 mM Tris-HCl, pH 7.0, 300 mM sucrose, 0.5% Triton X-100). To identify specific activity of Ca^2+-independent PLA2g6, the assay buffers were modified to contain no Ca^2+. To assess catalytic activity of PLA2g6, the cells were homogenized and treated with 10 mM EGTA for 10 min, which is known to directly displace inhibitory calmodulin, and fully activate PLA2g6. For analysis of PLA2g6 activation by store depletion, live cells were pretreated with TG (5 μM for 10 min) before homogenization, and homogenates were not treated with 10 mM EGTA. The specificity of PLA2g6 activity in both cases was confirmed by its inhibition with S-BEL (25 μM for 10 min), a chiral-specific suicidal substrate^38 that discriminates PLA2g6 from all other phospholipases. […] The reaction was stopped and the generation of free thiols was visualized by addition of DTNB for 5 min: the absorbance was determined at 405 nm using a standard microplate reader. […]

[4] = system: MEF cells; experiment: LC3^mCherry/eGFP autophagic flow, live cell imaging in MEFs; format: cell-based, mouse; settings: WT MEFs; prolonged TG treatment, 10 nM for 24 hours
Description: Transfection of MEFs was performed using the Amaxa Nucleofector™ system (Lonza, Allendale, N.J., USA). Briefly, the cells were plated in a 6-well plate at a density of 200,000/well. After 24h the cells from each well were collected, centrifuged, re-suspended in 100 μl of electroporation solution (Mirus Bio, Madison, Wis., USA), mixed with 2 μg of the recombinant plasmid DNA and transfected using the T020 program. After electroporation, the cells were plated in 2 ml of warm DMEM containing 10% FBS and 1% penicillin/streptomycin, and grown for 24-48 hours, as specified. Transfection efficiency (verified by expression of GFP or LC3^mCherry/eGFP) was >70%.
Live cell imaging was done using Nikon Ti inverted fluorescence microscope equipped with a Perfect Focus system and environmental chamber (InVivo Scientific). Live cells transfected with LC3^mCherry/eGFP (alone, or in combination with PLA2g6, or its mutants) were imaged in glass-bottom dishes in culture medium at 37° C. and 5% CO2. Images of individual cells were taken using a 60×/1.4 Plan-Apochromat oil immersion objective (Nikon) and filter sets for GFP (ex: 465-496, em: 515-555) and Texas Red (ex: 540-580, em: 600-660). Images of representative cells were analyzed using ImageJ (Wayne Rasband, NIH) software. […]

CC/C(=C(/CC)c1ccc(O)cc1)c1ccc(O)cc1 [DES, diethylstilbestrol]
inhibition at 10 µM ([1]; control group): 80 ± 1% | inhibition at 10 µM ([1]; idPD group): 82 ± 4%

N[C@@H](Cc1ccc(O)c(O)c1)C(=O)O [L-DOPA, L-3,4-dihydroxyphenylalanine]
reduction in the number of missteps (balance beam performance) ([2]; 5 mg/kg body weight L-DOPA, peritoneal injection, test 1 h after, 12-month old ex2^KO animals): 60% | motor coordination of ex2^KO animals after L-DOPA ([2]; 5, 10 or 25 mg/kg, 12, 16 and 20 months old ex2^KO mice): dramatically improved motor coordination

O=C1O/C(=C/Br)CC[C@H]1c1cccc2ccccc12 [S-BEL, S-bromoenol lactone]
effect on PLA2g6 activity (catalytic and TG-induced) [3]: inhibition

C/C=C(/C)C(=O)O[C@H]1C(C)=C2[C@H]([C@@H]1OC(=O)CCCCCCC)[C@@](C)(OC(C)=O)C[C@H](OC(=O)CCC)[C@@]1(O)[C@H]2OC(=O)[C@@]1(C)O [TG, thapsigargin]
autophagic flow (LC3^mCherry/eGFP) [4]: Autophagic arrest
